For series [1] the following is noted: typical reference compounds (markers) for the Caco-2 assay; cited from earlier work.
The target in series [2] is T1, human recombinant cathepsin K (Homo sapiens, UniProt P43235).
T1 construct: made in house; host or cells: not fixed: E coli, Pichia or Baculovirus systems named as options
T1 sequence (P43235 115-329): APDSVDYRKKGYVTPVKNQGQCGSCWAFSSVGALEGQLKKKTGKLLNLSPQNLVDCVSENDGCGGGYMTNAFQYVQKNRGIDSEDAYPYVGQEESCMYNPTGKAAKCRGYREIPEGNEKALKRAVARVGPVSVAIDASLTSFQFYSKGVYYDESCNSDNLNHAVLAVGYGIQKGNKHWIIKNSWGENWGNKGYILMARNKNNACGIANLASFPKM
Put plainly: Determination of cathepsin K proteolytic catalytic activity (Ki). In kind it is biochemical. The procedure: Convenient assays for cathepsin K are carried out using human recombinant enzyme, such as that described in PDB.
The recombinant cathepsin K can be expressed in a variety of commercially available expression systems including E coli, Pichia and Baculovirus systems. The purified enzyme is activated by removal of the prosequence by conventional methods.
Standard assay conditions for the determination of kinetic constants used a fluorogenic peptide substrate, typically H-D-Ala-Leu-Lys-AMC, and were determined in either 100 mM Mes/Tris, pH 7.0 containing 1 mM EDTA and 10 mM 2-mercaptoethanol or 100 mM Na phosphate, imM EDTA, 0.1% PEG4000 pH 6.5 or 100 mM Na acetate, pH 5.5 containing 5 mM EDTA and 20 mM cysteine, in each case optionally with […] as stabiliser. The enzyme concentration used was 5 nM. The stock substrate solution was prepared at 10 mM in DMSO. Screens were carried out at a fixed substrate concentration of 60 μM and detailed kinetic studies with doubling dilutions of substrate from 250 μM. The total DMSO concentration in the assay was kept below 3%. All assays were conducted at ambient temperature. Product fluorescence (excitation at 390 nm, emission at 460 nm) was monitored with a Labsystems Fluoroskan Ascent fluorescent plate reader. Product progress curves were generated over 15 minutes following generation of AMC product.
(§1) Potential inhibitors are screened using the above assay with variable concentrations of test compound. Reactions were initiated by addition of enzyme to buffered solutions of substrate and inhibitor. Ki values were calculated according to equation 1
(§2) [formula] where v0 is the velocity of the reaction, V is the maximal velocity, S is the concentration of substrate with Michaelis constant of KM, and/is the concentration of inhibitor.

Another series deals with human cathepsin L (Homo sapiens, UniProt P07711). Put plainly: Cathepsin L Ki. In kind it is biochemical. As to the method:
The procedure above with the following amendments is used for the determination of Ki for cathepsin L.
The enzyme is commercially available human cathepsin L (for example Calbiochem). The substrate is H-D-Val-Leu-Lys-AMC available from Bahcem. The assay buffer is 100 mM sodium acetate 1 mM EDTA, pH5.5) The DMSO stock (10 mM in 100% DMSO) is diluted to 10% in assay buffer. Enzyme is prepared at 5 nM concentration in assay buffer plus 1 mM dithiothreitol just before use. 2 ul of 10 mM inhibitor made up in 100% DMSO is dispensed into row A. 10 ul of 50 uM substrate (=1/200 dilution of 10 mM stock in DMSO, diluted in assay buffer)
as §1, §2

A short description of series [3]: Metabolic stability in human hepatic cytosol assay. Format: in vitro ADME. The procedure: Compounds of the invention and the indicated comparative examples were tested for metabolic stability in a cytosol assay in which the compounds were incubated with commercially available human hepatic cytosol fractions and the disappearance of the compound monitored by HPLC or LC/MS. Pooled human liver cytosol fractions are less likely to represent outlier individuals than blood from a single individual and can be stored frozen, unlike whole blood. The cytosol assay thus provides a consistent assay testbed as a guide to the stability of a compound in the in vivo environment, such as when exposed to whole blood.
In short, test compounds (2 μM) are incubated in pooled human liver cytosol (Xenotech LLC Lenexa US, 1 mg/mL protein in 0.1M phosphate buffer, pH 7.4) at 37° centigrade over a one hour period. The incubations are initiated by the addition of 1 mM NADPH co-factor. Timed sub-samples were taken at 0, 20, 40 and 60 minutes and “crash precipitated” by the addition of 3 volumes of ice-cold acetonitrile. The samples were centrifuged at reduced temperature and the supernatants were separated and analyzed by LC-MS-MS.

In series [4] the target is T2, baculovirus-expressed human cathepsin S (Homo sapiens, UniProt P25774).
T2 construct: made in house
Put plainly: Cathepsin S Ki determination. Format: biochemical. As to the method:
280 μl/well of 12.5% DMSO are added to rows B-H of two columns of a 96 deep well polypropylene plate. 70 μl/well of substrate is added to row A. 2×250 μl/well of assay buffer (100 mM Na phosphate, 100 mM NaCl, pH 6.5) is added to row A, mixed, and double diluted down the plate to row H. 100 μl/well of assay buffer is added to columns 2-5 and 7-12 of 4 rows of a 96 well V bottom polypropylene plate. 200 μl/well of assay buffer is added to columns 1 and 6. […] Add 90 μl assay buffer containing 1 mM DTT and 2 nM cathepsin S to each well of rows B-H and 180 μl to row A. Mix row A using a multichannel pipette and double dilute to row G. Mix row H and read in the fluorescent spectrophotometer. […] The second test compound is added to column 6 of the top row, the third to column 1 of the second row etc. Add 1 μl of comparator to column 6 of the bottom row. Mix column 1 and double dilute to column 5. Mix column 6 and double dilute to column 10. Using an 8-channel multistepping pipette set to 5×10 μl, distribute 10 μl/well of substrate to the 384 well assay plate. Distribute the first column of the substrate dilution plate to all columns of the assay plate starting at row A. The tip spacing of the multichannel pipette will correctly skip alternate rows. Distribute the second column to all columns starting at row B. Using a 12-channel multistepping pipette set to 4×10 μl, distribute 10 μl/well of inhibitor to the 384 well assay plate. Distribute the first row of the inhibitor dilution plate to alternate rows of the assay plate starting at A1. The tip spacing of the multichannel pipette will correctly skip alternate columns. Similarly, distribute the second, third and fourth rows to alternate rows and columns starting at A2, B1 and B2 respectively. Mix 20 ml assay buffer and 20 μl 1M DTT. Add sufficient cathepsin S to give 2 nM final concentration. Using the a distributor such as a Multidrop 384, add 30 μl/well to all wells of the assay plate and read in fluorescent spectrophotomoter such as an Ascent. Fluorescent readings, (excitation and emission wavelengths 390 nm and 460 nm respectively, set using bandpass filters) reflecting the extent of enzyme cleavage of the fluorescent substrate, notwithstanding the inhibitor, are linear rate fitted for each well. Fitted rates for all wells for each inhibitor are fitted to the competitive inhibition equation using SigmaPlot 2000 to determine V, Km and Ki values. Potential inhibitors are screened using the above assay with variable concentrations of test compound. Reactions were initiated by addition of enzyme to buffered solutions of substrate and inhibitor. Ki values were calculated according to equation 1 [formula] where v0 is the velocity of the reaction, V is the maximal velocity, S is the concentration of substrate with Michaelis constant of KM, and/is the concentration of inhibitor.

Setting [5] is: representative values from specific batches of compound/enzyme/assay occasion.
Where [6] appears, read: 2 μM in pooled human liver cytosol, 1 mg/mL protein, pH 7.4, 37°, 1 mM NADPH.

We go through twelve compounds from patent US7893067B2, “Cysteine protease inhibitors” (Medivir AB, priority 2007, dated 2011).

The structures appear in SMILES notation. Read-outs that look alike come from different tables or passages of the source.

Sequence of human cathepsin L (P07711 114-333): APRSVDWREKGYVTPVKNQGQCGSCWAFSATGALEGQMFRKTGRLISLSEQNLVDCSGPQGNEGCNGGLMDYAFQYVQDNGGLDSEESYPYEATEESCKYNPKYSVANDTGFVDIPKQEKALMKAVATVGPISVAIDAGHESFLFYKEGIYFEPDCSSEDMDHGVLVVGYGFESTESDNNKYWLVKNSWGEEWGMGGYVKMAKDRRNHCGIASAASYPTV
T2 sequence (P25774 115-331): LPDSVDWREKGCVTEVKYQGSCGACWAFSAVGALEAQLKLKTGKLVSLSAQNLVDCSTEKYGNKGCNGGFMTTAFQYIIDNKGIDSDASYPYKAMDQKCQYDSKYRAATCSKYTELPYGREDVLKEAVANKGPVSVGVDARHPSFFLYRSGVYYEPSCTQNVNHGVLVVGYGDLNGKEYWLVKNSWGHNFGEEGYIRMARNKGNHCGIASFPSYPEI

In the case of `OC[C@@H](O)[C@@H](O)[C@H](O)[C@H](O)CO` [Mannitol], the “% absorption in man” value in series [1] was 16%.

As usually defined, the Ki is a dissociation constant, usually derived from enzyme kinetics or from competition with a known ligand. One may read the half-life as the time needed for the level to fall by half in the phase considered. For the compound `CC(C)C[C@H](NC(=O)c1ccc(-c2csc(N3CCN(C)CC3)n2)cc1)C(=O)N1C[C@@H](Cl)[C@H]2OCC(=O)[C@H]21` [Example 6, N—[(S)-1-((3aS,6R,6aS)-6-chloro-3-oxo-hexahydro-furo[3,2-b]pyrrole-4-carbonyl)-3-methyl-butyl]-4-[2-(4-methyl-piperazin-1-yl)-thiazol-4-yl]benzamide], the Ki in series [2] (Table 1, class symbols) is < 0.05 µM; in series [2] (setting [5]), 0.0015 µM; on human cathepsin L (Table 1, class symbols), 0.501 to 1 µM; on human cathepsin L (setting [5]), 0.89 µM; in series [4] (Table 1, class symbols), 1 to 5 µM; in series [4] (setting [5]) it was 4 µM. The t1/2 minutes in series [3] (setting [6]) was >5 h. For the same compound, in series [3] (pooled human liver cytosol, pH 7.4, human liver cytosol, read-out: cytosol half life), the half-life at 2 μM is > 5 h.

Take `Cc1sc(N2CCN(C)CC2)nc1-c1ccc(C(=O)N[C@@H](CC(C)C)C(=O)N2C[C@@H](Cl)[C@H]3OCC(=O)[C@H]32)cc1` [Example 5, N-[1-(6-chloro-3-oxo-hexahydro-furo[3,2-b]pyrrol-4-carbonyl)-3-methyl-butyl]-4-[5-methyl-2-(4-methyl-piperazin-1-yl)-thiazol-4-yl]-benzamide]: the Ki is < 0.05 µM in series [2] (Table 1, class symbols); 0.0016 µM in series [2] (setting [5]); 0.501 to 1 µM at human cathepsin L (Table 1, class symbols); 0.88 µM at human cathepsin L (setting [5]); 5 to 10 µM in series [4] (Table 1, class symbols); 7.5 µM in series [4] (setting [5]). Moreover, the half-life at 2 μM in series [3] (setting [6]) came to 3.3 h.

With `CC(C)C[C@H](NC(c1ccc(-c2ccc(S(C)(=O)=O)cc2)cc1)C(F)(F)F)C(=O)N1C[C@@H](Cl)[C@H]2OCC(=O)[C@H]21` (stereo in doubt) [Example 13, 6-Chloro-4-{4-methyl-2-[2,2,2-trifluoro-1-(4′-methanesulfonyl-biphenyl-4-yl)-ethylamino]-pentanoyl}-tetrahydro-furo[3,2-b]pyrrol-3-one], the Ki was < 0.05 µM in series [2] (Table 1, class symbols); 1 to 5 µM at human cathepsin L (Table 1, class symbols); > 10 µM in series [4] (Table 1, class symbols).

Turning to `CN(Cc1cnc2nc(N)nc(N)c2n1)c1ccc(C(=O)N[C@@H](CCC(=O)O)C(=O)O)cc1` [Methotrexate], in series [1], the “% absorption in man” value is on record as 20%.

For `N[C@@H](Cc1ccccc1)C(=O)O` [L-Phenylalanine], the “% absorption in man” value in series [1] was 100%.

Turning to `Cc1sc(N2CCN(C)CC2)nc1-c1ccc(C(=O)N[C@@H](CC(C)C)C(=O)N2CC[C@H]3OCC(=O)[C@H]32)cc1` [Comparative Example 2, reference compound], the half-life at 2 μM in series [3] (setting [6]) came out at 1.2 h. Also, the cytosol half life entry in series [3] (human liver cytosol) is listed as “a little over an hour”.

On to `CC(C)C[C@H](NC(=O)c1ccc(-c2csc(N3CCN(C)CC3)n2)cc1)C(=O)N1C[C@H](Cl)[C@H]2OCC(=O)[C@H]21` [Comparative Example 1, reference compound], for which the half-life at 2 μM in series [3] (setting [6]) was 0.4 h.

Turning to `CN1CCN(c2nc(-c3ccc(C(=O)N[C@@H](CC(C)(C)F)C(=O)N4C[C@@H](Cl)[C@H]5OCC(=O)[C@H]54)cc3)cs2)CC1` [Example 8, N—[(S)-1-((3aS,6R,6aS)-6-chloro-3-oxo-hexahydro-furo[3,2-b]pyrrole-4-carbonyl)-3-fluoro-3-methyl-butyl]-4-[2-(4-methyl-piperazin-1-yl)-thiazol-4-yl]benzamide], the Ki was < 0.05 µM in series [2] (Table 1, class symbols); 0.0033 µM in series [2] (setting [5]); 1 to 5 µM on human cathepsin L (Table 1, class symbols); 2.9 µM on human cathepsin L (setting [5]); > 10 µM in series [4] (Table 1, class symbols); 13 µM in series [4] (setting [5]).

Take `Cc1sc(N2CCN(C)CC2)nc1-c1ccc(C(=O)N[C@@H](CC(C)C)C(=O)N2C[C@H](F)[C@H]3OCC(=O)[C@H]32)cc1` [Comparative Example 3, reference compound]: the half-life at 2 μM in series [3] (setting [6]) fell in the range of 1.67 to 2.5 h.

Turning to `CN1CCN(c2nc(-c3ccc(C(=O)N[C@H](C(=O)N4C[C@@H](Cl)[C@H]5OCC(=O)[C@H]54)C4CCCCC4)cc3)cs2)CC1` [Example 7, N-[2-((3aS,6R,6aS)-6-Chloro-3-oxo-hexahydro-furo[3,2-b]pyrrole-4-yl)-1-S-cyclohexyl-2-oxo-ethyl]-4-[2-(4-methyl-piperazin-1-yl)-thiazol-4-yl]-benzamide], the Ki is < 0.05 µM in series [2] (Table 1, class symbols); 0.0042 µM in series [2] (setting [5]); 1 to 5 µM at human cathepsin L (Table 1, class symbols); 1.2 µM at human cathepsin L (setting [5]); 1 to 5 µM in series [4] (Table 1, class symbols); 1.7 µM in series [4] (setting [5]).

With `CC(C)C[C@H](NC(=O)c1ccc(-c2csc(N3CCN(C)CC3)n2)c(F)c1)C(=O)N1C[C@@H](Cl)[C@H]2OCC(=O)[C@H]21` [Example 11], the half-life at 2 μM in series [3] (setting [6]) turned out to be 3 h.
